Test results reported in PubChem BioAssay (NCI).
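Assay format: 96-well plates, 48-hour exposure. Abbreviation: GI50, concentration required for 50% inhibition of growth. TGI denotes the concentration required for complete inhibition of growth.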

Key:
Assay in all cases: DTP human tumour cell line panel, 48 h
CAKI-1 renal = system: CAKI-1 renal
HCC-2998 colon = system: HCC-2998 colon
HL-60(TB) leukemia = system: HL-60(TB) leukemia
HOP-62 NSCLC = system: HOP-62 NSCLC
HT29 colon = system: HT29 colon
KM12 colon = system: KM12 colon
NCI-H23 lung = system: NCI-H23 lung
NCI-H460 lung = system: NCI-H460 lung
OVCAR-5 ovarian = system: OVCAR-5 ovarian
UO-31 renal = system: UO-31 renal

Structure (SMILES)	TGI (CAKI-1 renal) [µM]	TGI (HCC-2998 colon) [µM]	TGI (HL-60(TB) leukemia) [µM]	TGI (HOP-62 NSCLC) [µM]	TGI (HT29 colon) [µM]	TGI (KM12 colon) [µM]	TGI (NCI-H23 lung) [µM]	TGI (NCI-H460 lung) [µM]	TGI (OVCAR-5 ovarian) [µM]	TGI (UO-31 renal) [µM]	GI50 (HCC-2998 colon) [µM]	GI50 (HL-60(TB) leukemia) [µM]	GI50 (HOP-62 NSCLC) [µM]	GI50 (KM12 colon) [µM]	GI50 (NCI-H23 lung) [µM]	GI50 (NCI-H460 lung) [µM]	GI50 (OVCAR-5 ovarian) [µM]	GI50 (UO-31 renal) [µM]
N#Cc1ccccc1NC(=O)C(=O)C1NC(=S)NC1=O (stereo not given)	> 100	> 100	> 100	> 100	> 100	> 100	> 100	> 100	> 100	–	–	–	–	–	–	–	–	–
CCOc1cc2c(cc1O)C(O)C[C@@H]1[C@@H]2CC[C@]2(C)[C@@H](O)CC[C@@H]12 (stereo not given in full)	> 100	30.4	–	> 100	25.1	> 100	> 24.7	–	> 100	> 100	–	–	–	–	–	–	–	–
COC(=O)Cn1cnc2c(Cl)nc(Nc3ccccc3)nc21	–	82.8	> 100	> 100	> 100	> 100	–	> 100	–	–	–	–	–	–	–	–	–	–
NC(=S)NC/C=C/Cl	> 100	–	> 100	> 100	> 100	> 100	> 100	> 100	> 100	> 100	–	–	–	–	–	–	–	–
Cc1ccccc1NC(=O)CC(=O)NNC(Sc1ccccc1)c1cc(N=Nc2ccc(Br)cc2)ccc1O (stereo not given)	> 10	> 10	0.907	> 10	> 10	> 10	> 10	> 10	> 10	> 10	–	–	–	–	–	–	–	–
O=C1NC(Cc2ccc(O)cc2)C(=O)NC1Cc1ccc(O)cc1 (stereo not given)	> 100	–	> 100	> 100	> 100	> 100	> 100	> 100	> 100	> 100	–	–	–	–	–	–	–	–
O=c1c2ccccc2nc2ccc3c(Cl)[nH][nH]c3c12	85.3	> 100	> 100	> 100	> 100	> 100	> 100	> 100	98	> 92.2	–	–	–	–	–	–	–	–
CCN(CC)C(=O)Cn1c2c(c3ccccc31)CCCC2	> 100	> 100	> 100	> 100	> 100	–	> 100	> 100	> 100	> 100	–	–	–	–	–	–	–	–
Cc1c2cccc-2ccc2c3ccccc3n(C(=O)c3ccc(Cl)cc3)c12	> 100	–	> 100	> 100	> 100	> 100	> 100	> 100	> 100	> 100	–	–	–	–	–	–	–	–
O=C(N=Nc1ccccc1Cl)NNc1ccccc1Cl	> 100	94.1	44.9	> 100	> 100	–	> 100	> 100	> 100	> 100	–	–	–	–	–	–	–	–
CCCCN(C)/N=N/c1nc[nH]c1C(N)=O	> 100	> 100	> 100	–	> 100	> 100	> 100	> 100	> 100	> 100	–	–	–	–	–	–	–	–
CCOC(=O)CCC(C(=O)OCC)n1nnc2cc(Nc3c(C)[n+]([O-])c4cc(F)c(OCC)cc4[n+]3[O-])ccc21 (stereo not given)	> 100	–	> 100	> 100	> 100	> 100	> 100	> 100	> 100	> 100	–	–	–	–	–	–	–	–
COc1ccc(C(=O)/C=C/c2cc(-c3cc(OC)c(OC)c(OC)c3)n[nH]2)cc1	–	3.4	4.78	3.77	–	3.06	12.2	3.75	3.78	2.84	1.78	2.16	1.76	1.56	3.04	1.72	1.88	1.45
COc1ccc(Oc2ccccc2N)cc1	–	57.1	> 100	> 100	> 100	> 100	> 100	> 100	> 100	> 100	–	–	–	–	–	–	–	–
Cn1c(=O)sc2cc(C(=S)N3CCCCC3)ccc21	> 100	–	42.7	> 100	> 100	> 100	> 100	> 100	> 100	–	–	–	–	–	–	–	–	–
O=C(c1ccc(Cl)cc1)N1CCN=C1c1cc2ccccc2c2ccccc12	35.7	–	49.9	33.3	30	30.6	32.7	24.9	35.1	31.5	–	–	–	–	–	–	–	–
S=C1SC(=Nc2ccccc2)C(=Nc2ccccc2)N1c1ccc2ccccc2c1	> 100	> 100	> 100	> 100	–	> 100	> 100	–	> 100	> 100	–	–	–	–	–	–	–	–
COc1nc(C#CC2CCCCC2)nc(OC)n1	12.5	–	26	18.4	> 100	17.9	8.6	26.6	12.3	12.2	–	–	–	–	–	–	–	–
COc1ccc2cc(C(C)C(=O)N3C(=O)OCC3(C)C)ccc2c1 (stereo not given)	–	> 100	> 100	> 100	> 100	–	> 100	> 100	> 100	> 100	–	–	–	–	–	–	–	–
CCC(=O)OC1CCn2c1nc1c2C(=O)C(C)=C(NC(C)=O)C1=N (stereo not given)	1.94	13	–	3.47	3.36	5.37	3.23	3	3.47	4.64	–	–	–	–	–	–	–	–
Cc1nc(-c2cc3ccccc3oc2=O)cs1	> 100	> 100	> 100	42	> 100	> 100	–	> 100	> 100	> 100	–	–	–	–	–	–	–	–
COC(=O)Nc1nc2ccc(NC(=O)c3ccc(I)cc3)cc2[nH]1	> 100	–	> 100	> 100	> 100	> 100	> 100	> 100	> 100	> 100	–	–	–	–	–	–	–	–
COc1cc(N(CCC#N)CCC#N)ccc1/C=N\NC(=O)c1ccc(C)cc1	> 100	–	> 100	> 100	> 100	> 100	> 100	> 100	> 100	–	–	–	–	–	–	–	–	–

Structure (SMILES)	TGI (CAKI-1 renal) [µM]	TGI (HCC-2998 colon) [µM]	TGI (HL-60(TB) leukemia) [µM]	TGI (HOP-62 NSCLC) [µM]	TGI (HT29 colon) [µM]	TGI (KM12 colon) [µM]	TGI (NCI-H23 lung) [µM]	TGI (NCI-H460 lung) [µM]	TGI (OVCAR-5 ovarian) [µM]	TGI (UO-31 renal) [µM]	GI50 (HCC-2998 colon) [µM]	GI50 (HL-60(TB) leukemia) [µM]	GI50 (HOP-62 NSCLC) [µM]	GI50 (KM12 colon) [µM]	GI50 (NCI-H23 lung) [µM]	GI50 (NCI-H460 lung) [µM]	GI50 (OVCAR-5 ovarian) [µM]	GI50 (UO-31 renal) [µM]
Cc1cc(-c2nc3cccc(O)c3s2)ccc1N	71.4	> 100	47.2	> 100	> 100	36.7	93	> 100	–	25.4	–	–	–	–	–	–	–	–
Nc1c(S(=O)(=O)O)cc(S(=O)(=O)O)c2ccc(N=Nc3ccc(/C=C/c4ccc(N=Nc5ccc6c(S(=O)(=O)O)cc(S(=O)(=O)O)c(N)c6c5O)cc4S(=O)(=O)O)c(S(=O)(=O)O)c3)c(O)c12	–	> 100	> 100	> 100	> 100	> 100	> 100	> 100	> 100	> 100	–	–	–	–	–	–	–	–
O=C(OCc1ccccc1)N1CCNCCNCCN(C(=O)OCc2ccccc2)CCNCC1	73.8	–	21.7	> 100	32.9	70	–	52.1	> 100	27.8	–	–	–	–	–	–	–	–
CSc1cnc2ccccc2c1Sc1c[nH]c2ccccc2c1=O	–	29.5	18	43.6	15.1	22.2	36.7	22.8	59.4	45.1	–	–	–	–	–	–	–	–
O=[N+]([O-])/C(C(Cl)=C(Cl)Cl)=C(/Nc1cccc2cccnc12)n1nnc2ccccc21	26.3	> 100	–	37.5	40.5	29.5	34.7	> 100	58.3	29.9	–	–	–	–	–	–	–	–
COC(NC(=O)Nc1ccccc1C)(C(F)(F)F)C(F)(F)F	–	> 100	> 100	> 100	> 100	> 100	> 100	> 100	> 100	> 100	–	–	–	–	–	–	–	–
Cc1cc(S(=O)(=O)/N=C(/NN)Nc2ccc(Cl)cc2)c(S)cc1Cl	54.3	23.8	63.8	28	49.2	19.3	–	17.1	12.9	18	–	–	–	–	–	–	–	–
O=c1[nH]c(=O)n(C2OC(CO)C(O)C2O)cc1OCCCc1ccccc1 (stereo not given)	> 100	> 100	> 100	> 100	> 100	> 100	> 100	> 100	> 100	–	–	–	–	–	–	–	–	–
C#CCOC(=O)c1ccc(OC(C)=O)cc1	> 100	> 100	–	> 100	–	> 100	> 100	> 100	> 100	> 100	–	–	–	–	–	–	–	–
Cc1c([C@H](C)[C@@H]2NC[C@@H](C)C[C@H]2O)ccc2c1C[C@H]1[C@H]2CC=C2C[C@@H](O)CC[C@@]21C	> 100	30	–	96.4	42	37.2	37.9	41.4	90.8	37.5	–	–	–	–	–	–	–	–
CCOC1=C(c2ccccc2)N2CCCCC2O1 (stereo not given)	> 84.2	12.8	–	17.6	16.9	14	> 36.4	15	> 59.2	> 79.8	–	–	–	–	–	–	–	–
Oc1ccc(Oc2cc3c(cc2Oc2ccc(O)cc2)-c2nc-3nc3[nH]c(nc4nc(nc5[nH]c(n2)c2cc(Oc6ccc(O)cc6)c(Oc6ccc(O)cc6)cc52)-c2cc(Oc5ccc(O)cc5)c(Oc5ccc(O)cc5)cc2-4)c2cc(Oc4ccc(O)cc4)c(Oc4ccc(O)cc4)cc32)cc1	> 100	> 100	–	> 100	> 100	> 100	> 100	> 100	> 100	> 100	–	–	–	–	–	–	–	–
CCSC1=CC2(O)N(CCc3ccc(OC)c(OC)c3)C(=O)CC2(C(=O)OC)CC1=O (stereo not given)	> 100	36	73.5	34.7	32.9	33.4	33.2	–	> 100	33.1	–	–	–	–	–	–	–	–
CCN(CC)CC1CCCCN1CC(=O)N1CC(C)C(=O)Nc2ccccc21 (stereo not given)	> 100	> 100	> 100	> 100	> 100	–	> 100	> 100	> 100	> 100	–	–	–	–	–	–	–	–
COc1cc2nc(-c3cccs3)nc(Nc3cccc(Cl)c3)c2cc1OC	> 100	–	> 100	45.3	> 100	> 100	> 100	> 100	> 100	> 100	–	–	–	–	–	–	–	–
O=C1NC(N2CCOCC2)=N/C1=C\c1ccc(O)cc1	> 100	> 100	> 100	> 100	> 100	> 100	> 100	–	> 100	> 100	–	–	–	–	–	–	–	–
O=C1/C(=C/c2cccc3ccccc23)CCc2ccc([N+](=O)[O-])cc21	> 100	> 100	> 100	> 100	–	> 100	> 100	> 100	> 100	> 100	–	–	–	–	–	–	–	–
COc1cc2c(c(OC)c1OC)-c1ccc(SC)c(=O)cc1[C@@H](NCc1ccc([N+](=O)[O-])cc1)CC2	> 100	0.0105	1.49	> 100	0.011	0.0341	–	–	> 100	> 100	–	–	0.429	–	–	–	> 100	–
Cc1c2ccncc2c(C)c2c1[nH]c1ccc(OCCN(C)C)cc12	1.89	0.656	–	1.95	1.24	0.499	1.22	0.0921	1.59	1.75	–	–	–	–	–	–	–	–
OC(NN=C1CCCC1)(C(F)(F)Cl)C(F)(F)Cl	> 10	> 10	> 10	> 10	> 10	> 10	> 10	> 10	> 10	–	–	–	–	–	–	–	–	–
O=C(O)c1ccccc1C1c2ccccc2Oc2ccccc21	> 100	–	> 100	> 100	> 100	> 100	> 100	> 100	> 100	> 100	–	–	–	–	–	–	–	–
Oc1ccc(-c2nc3ccccc3s2)cc1	58.3	–	> 100	> 100	> 100	38.8	79.1	> 100	> 100	> 100	–	–	–	–	–	–	–	–
